By TD50 is commonly meant the dose at which the toxic effect under study appears in half of the subjects.

In the data set the test system is rodent lifetime carcinogenesis bioassay, tumor incidence TD50. Description: chronic cancer bioassays in animals – CPDB, compiled studies (AID 1745844).

On to `CCn1c2ccccc2c2cc(N)ccc21`, for which the TD50 is 41.8 mg/kg/day (mouse, strain B6C3F1, females, in feed, site: any site (literature study), lesion: several types, types named in the paper, dosed 78 weeks, study length 95 weeks); 33 mg/kg/day (mouse, strain B6C3F1, females, in feed, site: liver, lesion: hepatocellular adenoma + hepatocellular carcinoma + neoplastic nodule, dosed 78 weeks, study length 95 weeks); 33 mg/kg/day (mouse, strain B6C3F1, females, in feed, site: liver, lesion: hepatocellular carcinoma, dosed 78 weeks, study length 95 weeks); 1780 mg/kg/day (mouse, strain B6C3F1, females, in feed, site: lung, lesion: alveolar/bronchiolar adenoma + alveolar/bronchiolar carcinoma, dosed 78 weeks, study length 95 weeks); 70.6 mg/kg/day (mouse, strain B6C3F1, males, in feed, site: any site (literature study), lesion: several types, types named in the paper, dosed 78 weeks, study length 95 weeks); 49.8 mg/kg/day (mouse, strain B6C3F1, males, in feed, site: liver, lesion: hepatocellular adenoma + hepatocellular carcinoma + neoplastic nodule, dosed 78 weeks, study length 95 weeks). For the same compound, the TD50 is, setting by setting: (mouse, strain B6C3F1, males, in feed, site: liver, lesion: hepatocellular adenoma + hepatocellular carcinoma, dosed 78 weeks, study length 95 weeks) 49.8 mg/kg/day; (mouse, strain B6C3F1, males, in feed, site: liver, lesion: hepatocellular carcinoma, dosed 78 weeks, study length 95 weeks) 46.4 mg/kg/day; (rat, strain Fischer 344, females, in feed, site: Zymbal's gland, lesion: carcinoma, NOS + squamous-cell carcinoma, dosed 78 weeks, study length 107 weeks) 151 mg/kg/day; (rat, strain Fischer 344, females, in feed, site: Zymbal's gland, lesion: squamous-cell carcinoma, dosed 78 weeks, study length 107 weeks) 212 mg/kg/day; (rat, strain Fischer 344, females, in feed, site: any site (literature study), lesion: several types, types named in the paper, dosed 78 weeks, study length 107 weeks) 44.7 mg/kg/day; (rat, strain Fischer 344, females, in feed, site: liver + uterus + Zymbal's gland, lesion: hepatocellular carcinoma + neoplastic nodule + adenocarcinoma, NOS + carcinoma, NOS + squamous-cell carcinoma, dosed 78 weeks, study length 107 weeks) 55.1 mg/kg/day. The TD50 (rat, strain Fischer 344, females, in feed, site: liver, lesion: hepatocellular adenoma + hepatocellular carcinoma + neoplastic nodule, dosed 78 weeks, study length 107 weeks) was determined as 237 mg/kg/day; the TD50 (rat, strain Fischer 344, females, in feed, site: liver, lesion: hepatocellular carcinoma + neoplastic nodule, dosed 78 weeks, study length 107 weeks) was 237 mg/kg/day; the TD50 (rat, strain Fischer 344, females, in feed, site: uterus, lesion: adenocarcinoma, NOS, dosed 78 weeks, study length 107 weeks) is 106 mg/kg/day; the TD50 (rat, strain Fischer 344, males, in feed, site: Zymbal's gland, lesion: carcinoma, NOS + squamous-cell carcinoma, dosed 78 weeks, study length 106 weeks) was 240 mg/kg/day; the TD50 (rat, strain Fischer 344, males, in feed, site: any site (literature study), lesion: several types, types named in the paper, dosed 78 weeks, study length 106 weeks) is 42.7 mg/kg/day; the TD50 (rat, strain Fischer 344, males, in feed, site: liver + skin + subcutaneous tissue + Zymbal's gland, lesion: hepatocellular carcinoma + neoplastic nodule + basal-cell carcinoma + squamous-cell carcinoma + squamous-cell papilloma + carcinom, dosed 78 weeks, study length 106 weeks) is 28.1 mg/kg/day. Moreover, the TD50 (rat, strain Fischer 344, males, in feed, site: liver, lesion: hepatocellular adenoma + hepatocellular carcinoma + neoplastic nodule, dosed 78 weeks, study length 106 weeks) came to 39.2 mg/kg/day; the TD50 (rat, strain Fischer 344, males, in feed, site: liver, lesion: hepatocellular carcinoma + neoplastic nodule, dosed 78 weeks, study length 106 weeks) is 39.2 mg/kg/day; the TD50 (rat, strain Fischer 344, males, in feed, site: liver, lesion: hepatocellular carcinoma, dosed 78 weeks, study length 106 weeks) was 156 mg/kg/day; the TD50 (rat, strain Fischer 344, males, in feed, site: skin + subcutaneous tissue, lesion: basal-cell carcinoma + squamous-cell carcinoma + squamous-cell papilloma, dosed 78 weeks, study length 106 weeks) was 203 mg/kg/day; the TD50 (rat, strain Fischer 344, males, in feed, site: skin + subcutaneous tissue, lesion: squamous-cell carcinoma + squamous-cell papilloma, dosed 78 weeks, study length 106 weeks) is 257 mg/kg/day.

In the case of `O[C@@H]([C@H](O)[C@H](O)CBr)[C@H](O)CBr`, the TD50 reads like this: (mouse, strain Swiss, females, i.p., site: adrenal gland, lesion: cortical adenoma, dosed 26 weeks, study length 78 weeks) 136 mg/kg/day; (mouse, strain Swiss, females, i.p., site: all sites, lesion: lymphatic leukemia, dosed 26 weeks, study length 78 weeks) 89.8 mg/kg/day; (mouse, strain Swiss, females, i.p., site: all sites, lesion: lymphosarcoma, dosed 26 weeks, study length 78 weeks) 38.4 mg/kg/day; (mouse, strain Swiss, females, i.p., site: any site (literature study), lesion: benign tumor, dosed 26 weeks, study length 78 weeks) 130 mg/kg/day; (mouse, strain Swiss, females, i.p., site: any site (literature study), lesion: malignant tumor, dosed 26 weeks, study length 78 weeks) 11.2 mg/kg/day; (mouse, strain Swiss, females, i.p., site: any site (literature study), lesion: several types, types named in the paper, dosed 26 weeks, study length 78 weeks) 7.67 mg/kg/day. The TD50 was 21.4 mg/kg/day (mouse, strain Swiss, females, i.p., site: lung, lesion: several types, types named in the paper, dosed 26 weeks, study length 78 weeks); 66 mg/kg/day (mouse, strain Swiss, females, i.p., site: subcutaneous tissue, lesion: carcinoma, dosed 26 weeks, study length 78 weeks); 92.8 mg/kg/day (mouse, strain Swiss, males, i.p., site: any site (literature study), lesion: benign tumor, dosed 26 weeks, study length 78 weeks); 8.53 mg/kg/day (mouse, strain Swiss, males, i.p., site: any site (literature study), lesion: malignant tumor, dosed 26 weeks, study length 78 weeks); 6.03 mg/kg/day (mouse, strain Swiss, males, i.p., site: any site (literature study), lesion: several types, types named in the paper, dosed 26 weeks, study length 78 weeks); 65.7 mg/kg/day (mouse, strain Swiss, males, i.p., site: liver, lesion: several types, types named in the paper, dosed 26 weeks, study length 78 weeks). Further, the TD50 reads like this: (mouse, strain Swiss, males, i.p., site: lung, lesion: several types, types named in the paper, dosed 26 weeks, study length 78 weeks) 11.4 mg/kg/day; (rat, strain Charles River CD (Sprague-Dawley), females, i.p., site: any site (literature study), lesion: malignant tumor, dosed 26 weeks, study length 78 weeks) 11.5 mg/kg/day; (rat, strain Charles River CD (Sprague-Dawley), females, i.p., site: any site (literature study), lesion: several types, types named in the paper, dosed 26 weeks, study length 78 weeks) 12.5 mg/kg/day; (rat, strain Charles River CD (Sprague-Dawley), females, i.p., site: lung, lesion: carcinoma, dosed 26 weeks, study length 78 weeks) 84.6 mg/kg/day; (rat, strain Charles River CD (Sprague-Dawley), females, i.p., site: mammary gland, lesion: adenocarcinoma, dosed 26 weeks, study length 78 weeks) 24.9 mg/kg/day; (rat, strain Charles River CD (Sprague-Dawley), females, i.p., site: peritoneum, lesion: sarcoma, dosed 26 weeks, study length 78 weeks) 79.2 mg/kg/day. Moreover, the TD50 is, setting by setting: (rat, strain Charles River CD (Sprague-Dawley), males, i.p., site: any site (literature study), lesion: benign tumor, dosed 26 weeks, study length 78 weeks) 16.6 mg/kg/day; (rat, strain Charles River CD (Sprague-Dawley), males, i.p., site: any site (literature study), lesion: several types, types named in the paper, dosed 26 weeks, study length 78 weeks) 7.95 mg/kg/day; (rat, strain Charles River CD (Sprague-Dawley), males, i.p., site: mammary gland, lesion: fibroadenoma, dosed 26 weeks, study length 78 weeks) 255 mg/kg/day; (rat, strain Charles River CD (Sprague-Dawley), males, i.p., site: peritoneum, lesion: sarcoma, dosed 26 weeks, study length 78 weeks) 30.9 mg/kg/day; (rat, strain Charles River CD (Sprague-Dawley), males, i.p., site: skin, lesion: several types, types named in the paper, dosed 26 weeks, study length 78 weeks) 103 mg/kg/day.

On to `O=[N+]([O-])OCC(CO[N+](=O)[O-])O[N+](=O)[O-]`, for which the TD50 was 329 mg/kg/day (rat, strain Charles River CD (Sprague-Dawley), females, in feed, site: liver, lesion: several types, types named in the paper, dosed 104 weeks, study length 104 weeks); 221 mg/kg/day (rat, strain Charles River CD (Sprague-Dawley), males, in feed, site: liver, lesion: several types, types named in the paper, dosed 104 weeks, study length 104 weeks); 405 mg/kg/day (rat, strain Charles River CD (Sprague-Dawley), males, in feed, site: testis, lesion: interstitial-cell tumor, dosed 104 weeks, study length 104 weeks); 681 mg/kg/day (rat, strain Fischer 344, males, in feed, site: liver, lesion: cholangiocarcinoma, dosed 70 weeks, study length 70 weeks); 509 mg/kg/day (rat, strain Fischer 344, males, in feed, site: liver, lesion: cholangiocarcinoma, dosed 76 weeks, study length 76 weeks); 211 mg/kg/day (rat, strain Fischer 344, males, in feed, site: liver, lesion: cholangioma, dosed 76 weeks, study length 76 weeks). The TD50 (rat, strain Fischer 344, males, in feed, site: liver, lesion: hepatocellular adenoma, dosed 70 weeks, study length 70 weeks) was determined as 179 mg/kg/day; the TD50 (rat, strain Fischer 344, males, in feed, site: liver, lesion: hepatocellular adenoma, dosed 76 weeks, study length 76 weeks) worked out at 106 mg/kg/day; the TD50 (rat, strain Fischer 344, males, in feed, site: liver, lesion: several types, types named in the paper, dosed 70 weeks, study length 70 weeks) was 113 mg/kg/day. Besides, the carcinogen call (rat, strain Fischer 344, males, in feed, site: liver, lesion: several types, types named in the paper, dosed 76 weeks, study length 76 weeks) was “positive”.

On to `Cc1ccc2c(c1[N+](=O)[O-])C(=O)c1ccccc1C2=O`, for which the TD50 (mouse, strain B6C3F1, females, in feed, site: any site (literature study), lesion: several types, types named in the paper, dosed 49 weeks, study length 49 weeks) was found to be 1.76 mg/kg/day; the TD50 (mouse, strain B6C3F1, females, in feed, site: lung, lesion: alveolar/bronchiolar adenoma + alveolar/bronchiolar carcinoma, dosed 49 weeks, study length 49 weeks) turned out to be 97.3 mg/kg/day; the TD50 (mouse, strain B6C3F1, females, in feed, site: subcutaneous tissue, lesion: hemangiosarcoma, dosed 49 weeks, study length 49 weeks) is 1.88 mg/kg/day; the TD50 (mouse, strain B6C3F1, males, in feed, site: any site (literature study), lesion: several types, types named in the paper, dosed 46 weeks, study length 46 weeks) came out at 1.02 mg/kg/day; the TD50 (mouse, strain B6C3F1, males, in feed, site: lung, lesion: alveolar/bronchiolar adenoma + alveolar/bronchiolar carcinoma, dosed 46 weeks, study length 46 weeks) amounted to 45.5 mg/kg/day; the TD50 (mouse, strain B6C3F1, males, in feed, site: subcutaneous tissue, lesion: hemangiosarcoma, dosed 46 weeks, study length 46 weeks) is 1.34 mg/kg/day. Moreover, the TD50 is 47.1 mg/kg/day (rat, strain Fischer 344, females, in feed, site: any site (literature study), lesion: several types, types named in the paper, dosed 78 weeks, study length 109 weeks); 324 mg/kg/day (rat, strain Fischer 344, females, in feed, site: liver, lesion: hepatocellular adenoma + hepatocellular carcinoma + neoplastic nodule, dosed 78 weeks, study length 109 weeks); 324 mg/kg/day (rat, strain Fischer 344, females, in feed, site: liver, lesion: hepatocellular carcinoma + neoplastic nodule, dosed 78 weeks, study length 109 weeks); 547 mg/kg/day (rat, strain Fischer 344, females, in feed, site: liver, lesion: hepatocellular carcinoma, dosed 78 weeks, study length 109 weeks); 63.4 mg/kg/day (rat, strain Fischer 344, females, in feed, site: pituitary gland, lesion: adenoma, dosed 78 weeks, study length 109 weeks); 507 mg/kg/day (rat, strain Fischer 344, females, in feed, site: stomach, lesion: squamous-cell carcinoma, dosed 78 weeks, study length 109 weeks). Besides, the TD50 reads like this: (rat, strain Fischer 344, females, in feed, site: subcutaneous tissue, lesion: fibroma, dosed 78 weeks, study length 109 weeks) 131 mg/kg/day; (rat, strain Fischer 344, females, in feed, site: urinary bladder, lesion: papilloma, NOS + sarcoma, NOS + transitional-cell papilloma, dosed 78 weeks, study length 109 weeks) 224 mg/kg/day; (rat, strain Fischer 344, males, in feed, site: any site (literature study), lesion: several types, types named in the paper, dosed 78 weeks, study length 109 weeks) 31.9 mg/kg/day; (rat, strain Fischer 344, males, in feed, site: liver, lesion: hepatocellular adenoma + hepatocellular carcinoma + neoplastic nodule, dosed 78 weeks, study length 109 weeks) 48.8 mg/kg/day; (rat, strain Fischer 344, males, in feed, site: liver, lesion: hepatocellular carcinoma + neoplastic nodule, dosed 78 weeks, study length 109 weeks) 48.8 mg/kg/day; (rat, strain Fischer 344, males, in feed, site: liver, lesion: hepatocellular carcinoma, dosed 78 weeks, study length 109 weeks) 89.2 mg/kg/day. For the same compound, the TD50 (rat, strain Fischer 344, males, in feed, site: liver, lesion: neoplastic nodule, dosed 78 weeks, study length 109 weeks) is 133 mg/kg/day and the TD50 (rat, strain Fischer 344, males, in feed, site: subcutaneous tissue, lesion: fibroma, dosed 78 weeks, study length 109 weeks) was 25.8 mg/kg/day.

These data come from PubChem BioAssay AID1745844 (Carcinogenic Potency Database (CPDB), 2022).
